The subject of assay [1] is Helicobacter pylori. The assay is described as follows: Antimicrobial activity against Helicobacter pylori clinical isolate 2 after 7 days by two-fold agar dilution method. In kind it is functional. The conditions noted are these: clinical isolate 2, 168 h.
For assay [2], the system named is Helicobacter pylori. Description: Antimicrobial activity against Helicobacter pylori clinical isolate 1 after 7 days by two-fold agar dilution method. As to conditions: clinical isolate 1, 168 h. The class given is functional.
For a further assay, the system named is Aspergillus clavatus. The assay is described as follows: Antifungal activity against Aspergillus clavatus after overnight incubation by agar well diffusion method. The class given is functional.
The test system of assay [3] is Staphylococcus aureus. The assay is described as follows: Antimicrobial activity against Staphylococcus aureus ATCC 25923 incubated for 18 to 24 hrs by disk diffusion method. The class given is functional.
The next assay has as its system Bacillus subtilis. Description: Antimicrobial activity against Bacillus subtilis 10B incubated for 18 to 24 hrs by disk diffusion method. The class given is functional.
In assay [4] the test system is Escherichia coli. The assay is described as follows: Antimicrobial activity against Escherichia coli ATCC 25922 incubated for 18 to 24 hrs by disk diffusion method. In kind it is functional.
In assay [5] the test system is Pseudomonas aeruginosa. The assay is described as follows: Antimicrobial activity against Pseudomonas aeruginosa ATCC 27853 incubated for 18 to 24 hrs by disk diffusion method. In kind it is functional.
In assay [6] the test system is Escherichia coli. The assay is described as follows: Antimicrobial activity against Escherichia coli ATCC 8739 by agar dilution method. In kind it is functional.
Assay [7] concerns Staphylococcus aureus. Description: Antimicrobial activity against Staphylococcus aureus ATCC 6538 by agar dilution method. The class given is functional.
For assay [8], the system named is Pseudomonas aeruginosa. The assay is described as follows: Antimicrobial activity against Pseudomonas aeruginosa ATCC 9027 by agar well diffusion method. In kind it is functional.
Another assay concerns Bacillus cereus. Description: Antimicrobial activity against Bacillus cereus 709 Roma incubated for 18 to 24 hrs by microbroth dilution method. The class given is functional.
The test system of assay [9] is Staphylococcus aureus. The assay is described as follows: Antimicrobial activity against Staphylococcus aureus ATCC 25923 incubated for 18 to 24 hrs by microbroth dilution method. In kind it is functional.
Assay [10] has as its system Pseudomonas aeruginosa. Description: Antimicrobial activity against Pseudomonas aeruginosa ATCC 43288 incubated for 18 to 24 hrs by microbroth dilution method. In kind it is functional.
The subject of another assay is Enterococcus faecalis. The assay is described as follows: Antimicrobial activity against Enterococcus faecalis ATCC 29212 incubated for 18 to 24 hrs by microbroth dilution method. The class given is functional.
Assay [11] has as its system Mycolicibacterium smegmatis. The assay is described as follows: Antimicrobial activity against Mycobacterium smegmatis ATCC 607 incubated for 48 to 72 hrs by microbroth dilution method. In kind it is functional.
Another assay deals with Candida albicans. Description: Antifungal activity against Candida albicans after overnight incubation by agar well diffusion method. In kind it is functional.
Another assay relates to PC-3. The assay is described as follows: Growth inhibition of human PC3 cells by MTT assay. In kind it is functional, cell-based.

In brackets after ≈: the same amount, converted by molar mass.

For the molecule `Nc1c(Nc2ccccc2)c(F)cc2c(=O)c(C(=O)O)cn(C3CC3)c12`, the results for the minimum inhibitory concentration (MIC) in the assay with Helicobacter pylori [1] and in the assay on Helicobacter pylori [2] were 1.3 µg/mL (≈ 3.68 µM) and 0.6 µg/mL (≈ 1.7 µM), respectively.
In the case of `COc1c(N2CCN(C)CC2)c(F)cc2c(=O)c(C(=O)N/N=C\c3ccc(F)cc3)cn(C3CC3)c12`, the “inhibition zone (IZ)” value in the assay on Aspergillus clavatus stood at 11 mm.
In the case of `CCn1cc(C(=O)O)c(=O)c2cc(F)c(Nn3c(=O)[nH]cc(F)c3=O)c(F)c21`, the minimum inhibitory concentration (MIC) with Staphylococcus aureus [3] was 390 µg/mL (≈ 984 µM); against Bacillus subtilis, over 500 µg/mL; in the assay on Escherichia coli [4], 120 µg/mL (≈ 303 µM); against Pseudomonas aeruginosa [5] it was over 500 µg/mL.
With `CCn1cc(C(=O)O)c(=O)c2cc(F)c(N3CCCC3)c(Cl)c21`, the minimum inhibitory concentration (MIC) in the assay on Escherichia coli [6] was 16 µg/mL (≈ 47.2 µM); against Staphylococcus aureus [7], under 0.125 µg/mL; with Pseudomonas aeruginosa [8] it was 8 µg/mL (≈ 23.6 µM).
With `CCn1cc(C(=O)O)c(=O)c2cc(F)c(N3CCN(Cn4nc(CN5CCN(c6ccc([N+](=O)[O-])cc6)CC5)n(Cc5ccccc5)c4=S)CC3)cc21`, the MIC in the assay with Bacillus cereus is 0.12 to 0.48 µg/mL (≈ 0.162 to 0.647 µM); with Staphylococcus aureus [9] it was 0.12 to 0.24 µg/mL (≈ 0.162 to 0.324 µM); with Pseudomonas aeruginosa [10] it was 0.06 to 0.48 µg/mL (≈ 0.0809 to 0.647 µM); in the assay with Enterococcus faecalis it was 0.122 to 0.488 µg/mL (≈ 0.164 to 0.658 µM); in [11], 0.244 µg/mL (≈ 0.329 µM).
For the molecule `COc1c(N2CCN(C)CC2)c(F)cc2c(=O)c(C(=O)N/N=C\c3cccc(N(C)C)c3)cn(C3CC3)c12`, the “inhibition zone (IZ)” value in the assay with Aspergillus clavatus worked out at 10 mm; in the assay with Candida albicans it was 8 mm.
On to `COc1cc(/C=N\NC(=O)c2cn(C3CC3)c3c(OC)c(N4CCN(C)CC4)c(F)cc3c2=O)ccc1O`, for which the figures for the “inhibition zone (IZ)” value with Aspergillus clavatus and with Candida albicans were 12 mm and 10 mm, respectively. This molecule displayed an IC50 in the assay on PC-3 of 14.8 µg/mL (≈ 28.3 µM).
Turning to `CCn1cc(C(=O)O)c(=O)c2cc(F)c(N3CCNC(C)C3)c(Cl)c21.Cl` (centres undefined), the MIC against Escherichia coli [6] was determined as 31.2 µg/mL; against Staphylococcus aureus [7] it was 2 µg/mL; in the assay on Pseudomonas aeruginosa [8] it was 128 µg/mL.
`CCn1cc(C(=O)O)c(=O)c2cc(F)c(N3CCCC(C)C3)c(Cl)c21` (centres undefined): the MIC was 8 µg/mL (≈ 21.8 µM) against Escherichia coli [6], 2 µg/mL (≈ 5.45 µM) in the assay on Staphylococcus aureus [7] and 128 µg/mL (≈ 349 µM) in the assay with Pseudomonas aeruginosa [8].
Consider `O=C(O)c1cn(C2CC2)c2c(cc(F)c3nn(CN(N4CCCC4)N4CCCC4)c(=O)n32)c1=O`, for which the MIC against Helicobacter pylori [1] is 0.6 µg/mL (≈ 1.27 µM); with Helicobacter pylori [2], 2.5 µg/mL (≈ 5.3 µM).
In the same order, the values of `Cc1ccc(Nc2c(F)cc3c(=O)c(C(=O)O)cn(C4CC4)c3c2N)cc1` are 2.5 µg/mL (≈ 6.8 µM) and 5 µg/mL (≈ 13.6 µM).
`COc1c(N2CCN(C)CC2)c(F)cc2c(=O)c(C(=O)N/N=C\c3ccc(O)cc3)cn(C3CC3)c12`: the “inhibition zone (IZ)” value with Aspergillus clavatus was found to be 12 mm; in the assay on Candida albicans, 9 mm. In the assay with PC-3, the IC50 turned out to be 14.4 µg/mL (≈ 29.2 µM).
Regarding `Nc1c(Nc2ccc(Cl)cc2)c(F)cc2c(=O)c(C(=O)O)cn(C3CC3)c12`, the MIC in the assay with Helicobacter pylori [1] amounted to 2.5 µg/mL (≈ 6.45 µM); against Helicobacter pylori [2], 5 µg/mL (≈ 12.9 µM).
On the same counts, the results for `O=C(O)c1cn(C2CC2)c2c(cc(F)c3c2nnn3-c2ccc(Cl)cc2)c1=O` are 2.5 µg/mL (≈ 6.27 µM) and 5 µg/mL (≈ 12.5 µM).
On to `COc1ccc(Nc2c(F)cc3c(=O)c(C(=O)O)cn(C4CC4)c3c2N)cc1`, for which the figures for the MIC in the assay with Helicobacter pylori [1] and in the assay with Helicobacter pylori [2] were 5 µg/mL (≈ 13 µM) and 2.5 µg/mL (≈ 6.52 µM), respectively.
Consider `N[C@@H]1CCN2c3c(F)cc4c(=O)c(C(=O)O)cn(C5CC5)c4c3CCCC[C@H]12`, for which the minimal inhibitory concentration (MIC) amounted to 2 µg/mL (≈ 5.19 µM) in the assay on Escherichia coli [6], 4 µg/mL (≈ 10.4 µM) with Staphylococcus aureus [7] and 16 µg/mL (≈ 41.5 µM) against Pseudomonas aeruginosa [8].
For `COc1ccc(OC)c(/C=N\NC(=O)c2cn(C3CC3)c3c(OC)c(N4CCN(C)CC4)c(F)cc3c2=O)c1`, the “inhibition zone (IZ)” value amounted to 8 mm in the assay on Aspergillus clavatus and 10 mm with Candida albicans. Moreover, in the assay with PC-3, it took 3 µg/mL (≈ 5.58 µM) to reach half-maximal inhibition (IC50).
Turning to `CCn1cc(C(=O)O)c(=O)c2cc(F)c(NNc3c[nH]c(=O)[nH]c3=O)c(F)c21`, the MIC in the assay with Staphylococcus aureus [3] is 195 µg/mL (≈ 496 µM); in the assay on Bacillus subtilis, over 500 µg/mL; with Escherichia coli [4], 170 µg/mL (≈ 432 µM); with Pseudomonas aeruginosa [5], over 500 µg/mL.
In the case of `COc1c(N2CCN(C)CC2)c(F)cc2c(=O)c(C(=O)N/N=C\c3ccc([N+](=O)[O-])cc3)cn(C3CC3)c12`, the “inhibition zone (IZ)” value was found to be 8 mm in the assay with Aspergillus clavatus and 10 mm in the assay with Candida albicans. Further, the IC50 in the assay with PC-3 was found to be 15 µg/mL (≈ 28.7 µM).
Regarding `CCn1cc(C(=O)O)c(=O)c2cc(F)c(NNc3ncccn3)c(F)c21`, the MIC in the assay on Staphylococcus aureus [3] is 150 µg/mL (≈ 415 µM); against Bacillus subtilis it was over 500 µg/mL; against Escherichia coli [4], 120 µg/mL (≈ 332 µM); against Pseudomonas aeruginosa [5], over 500 µg/mL.
In the case of `CCn1cc(C(=O)O)c(=O)c2cc(F)c(Nc3n[nH]c(N)n3)cc21`, the MIC against Staphylococcus aureus [3] was over 500 µg/mL; against Bacillus subtilis, over 500 µg/mL; against Escherichia coli [4] it was 150 µg/mL (≈ 451 µM); in the assay with Pseudomonas aeruginosa [5] it was over 500 µg/mL.
For the molecule `CCn1cc(C(=O)O)c(=O)c2cc(F)c(N3CCN(C(C)=O)CC3)cc21` [4-N-ACETYL-1-PIPERAZINYL-NORFLOXACIN], the MIC against Staphylococcus aureus [3] is 10.7 µg/mL (≈ 29.7 µM); in the assay with Bacillus subtilis, 0.805 µg/mL (≈ 2.23 µM); against Escherichia coli [4], 0.012 µg/mL (≈ 0.0332 µM); in the assay on Pseudomonas aeruginosa [5], over 500 µg/mL.

Values taken from ChEMBL document CHEMBL4602605, “Fluoroquinolones structural and medicinal developments (2013-2018): Where are we now?” (Bioorg Med Chem, 2019).
